Measured values: US20090274764A1, “Hollow Foam Beads for Treatment of Glioblastoma” (priority 2008, published 2009)
Like-named read-outs stand apart in the source and are kept apart here.

Experiments:
rodent 9L glioma = assay: Inhibition of tumor proliferation, 9L cells counted after 5 days; type: cell-based; conditions: 120 h, read-out: growth inhibition
Description: The 9L gliosarcoma cell line was obtained from Dr. M. Barker at the University of California at San Francisco Brain Tumor Research Center (San Francisco, Calif., USA). The cells were maintained in tissue culture in Dulbecco's minimum essential medium with 10% fetal bovine serum, streptomycin (80.5 units/ml), penicillin (base; 80.5 units/ml), and 1% L-glutamine (all products from GIBCO laboratories, Grand Island, N.Y., USA). Cells were maintained in a humidified atmosphere of 5% CO2 at 37° C. The cells were grown to confluence, detached with 0.25% trypsin in Dulbecco's phosphate-buffered saline, and resuspended in medium.
Inhibition of tumor proliferation was tested against the rodent 9L glioma. […] The data were analyzed using the two-tailed Student's t-test.

9L gliosarcoma = tested on: 9L gliosarcoma
From the text: 88 rats were intracranially implanted on Day 0 with 9L gliosarcoma.

CO[C@H]1C[C@@H]2CC[C@@H](C)[C@@](O)(O2)C(=O)C(=O)N2CCCC[C@H]2C(=O)O[C@H]([C@H](C)C[C@@H]2CC[C@@H](O)[C@H](OC)C2)CC(=O)[C@H](C)/C=C(\C)[C@@H](O)[C@@H](OC)C(=O)[C@H](C)C[C@H](C)/C=C/C=C/C=C/1C [Rapamycin, rapamycin]
inhibition at 0.01 µg/mL (rodent 9L glioma; 0.01 microgram/ml): 34%
inhibition at 10 µg/mL (rodent 9L glioma; 10 microgram/ml): 62%
toxicity (9L gliosarcoma; rat, in vivo, ip, 2 mg/kg): none of the rats that received systemic injections of rapamycin showed overt signs of toxicity
% Survival (9L gliosarcoma; treated Day 0, at Day 0): 100%
% Survival (9L gliosarcoma; treated Day 0, at Day 12, 1st line): 100%
% Survival (9L gliosarcoma; treated Day 0, at Day 12, 2nd line): 100%
% Survival (9L gliosarcoma; treated Day 0, at Day 13, 1st line): 100%
% Survival (9L gliosarcoma; treated Day 0, at Day 13, 2nd line): 100%
% Survival (9L gliosarcoma; treated Day 0, at Day 14, 1st line): 100%
% Survival (9L gliosarcoma; treated Day 0, at Day 14, 2nd line): 100%
% Survival (9L gliosarcoma; treated Day 0, at Day 15, 1st line): 100%
% Survival (9L gliosarcoma; treated Day 0, at Day 15, 2nd line): 100%
% Survival (9L gliosarcoma; treated Day 0, at Day 16, 1st line): 100%
% Survival (9L gliosarcoma; treated Day 0, at Day 16, 2nd line): 100%
% Survival (9L gliosarcoma; treated Day 0, at Day 17, 1st line): 100%
% Survival (9L gliosarcoma; treated Day 0, at Day 17, 2nd line): 100%
% Survival (9L gliosarcoma; treated Day 0, at Day 18, 1st line): 100%
% Survival (9L gliosarcoma; treated Day 0, at Day 18, 2nd line): 100%
% Survival (9L gliosarcoma; treated Day 0, at Day 19, 1st line): 100%
% Survival (9L gliosarcoma; treated Day 0, at Day 19, 2nd line): 100%
% Survival (9L gliosarcoma; treated Day 0, at Day 20, 1st line): 100%
% Survival (9L gliosarcoma; treated Day 0, at Day 20, 2nd line): 100%
% Survival (9L gliosarcoma; treated Day 0, at Day 21, 1st line): 100%
% Survival (9L gliosarcoma; treated Day 0, at Day 21, 2nd line): 100%
% Survival (9L gliosarcoma; treated Day 0, at Day 22, 1st line): 100%
% Survival (9L gliosarcoma; treated Day 0, at Day 22, 2nd line): 100%
% Survival (9L gliosarcoma; treated Day 0, at Day 23, 1st line): 100%
% Survival (9L gliosarcoma; treated Day 0, at Day 23, 2nd line): 100%
% Survival (9L gliosarcoma; treated Day 0, at Day 24, 1st line): 100%
% Survival (9L gliosarcoma; treated Day 0, at Day 24, 2nd line): 100%
% Survival (9L gliosarcoma; treated Day 0, at Day 25, 1st line): 100%
% Survival (9L gliosarcoma; treated Day 0, at Day 25, 2nd line): 75%
% Survival (9L gliosarcoma; treated Day 0, at Day 26, 1st line): 75%
% Survival (9L gliosarcoma; treated Day 0, at Day 26, 2nd line): 75%
% Survival (9L gliosarcoma; treated Day 0, at Day 27, 1st line): 75%
% Survival (9L gliosarcoma; treated Day 0, at Day 27, 2nd line): 75%
% Survival (9L gliosarcoma; treated Day 0, at Day 28, 1st line): 75%
% Survival (9L gliosarcoma; treated Day 0, at Day 28, 2nd line): 50%
% Survival (9L gliosarcoma; treated Day 0, at Day 29, 1st line): 50%
% Survival (9L gliosarcoma; treated Day 0, at Day 29, 2nd line): 50%
% Survival (9L gliosarcoma; treated Day 0, at Day 30, 1st line): 50%
% Survival (9L gliosarcoma; treated Day 0, at Day 30, 2nd line): 37.5%
% Survival (9L gliosarcoma; treated Day 0, at Day 31, 1st line): 37.5%
% Survival (9L gliosarcoma; treated Day 0, at Day 31, 2nd line): 37.5%
% Survival (9L gliosarcoma; treated Day 0, at Day 32, 1st line): 37.5%
% Survival (9L gliosarcoma; treated Day 0, at Day 32, 2nd line): 37.5%
% Survival (9L gliosarcoma; treated Day 0, at Day 33, 1st line): 37.5%
% Survival (9L gliosarcoma; treated Day 0, at Day 33, 2nd line): 37.5%
% Survival (9L gliosarcoma; treated Day 0, at Day 35, 1st line): 37.5%
% Survival (9L gliosarcoma; treated Day 0, at Day 35, 2nd line): 25%
% Survival (9L gliosarcoma; treated Day 0, at Day 40, 1st line): 25%
% Survival (9L gliosarcoma; treated Day 0, at Day 41, 2nd line): 0%
% Survival (9L gliosarcoma; treated Day 5, at Day 0): 100%
% Survival (9L gliosarcoma; treated Day 5, at Day 12, 1st line): 100%
% Survival (9L gliosarcoma; treated Day 5, at Day 12, 2nd line): 100%
% Survival (9L gliosarcoma; treated Day 5, at Day 13, 1st line): 100%
% Survival (9L gliosarcoma; treated Day 5, at Day 13, 2nd line): 100%
% Survival (9L gliosarcoma; treated Day 5, at Day 14, 1st line): 100%
% Survival (9L gliosarcoma; treated Day 5, at Day 14, 2nd line): 100%
% Survival (9L gliosarcoma; treated Day 5, at Day 15, 1st line): 100%
% Survival (9L gliosarcoma; treated Day 5, at Day 15, 2nd line): 100%
% Survival (9L gliosarcoma; treated Day 5, at Day 16, 1st line): 100%
% Survival (9L gliosarcoma; treated Day 5, at Day 16, 2nd line): 100%
% Survival (9L gliosarcoma; treated Day 5, at Day 17, 1st line): 100%
% Survival (9L gliosarcoma; treated Day 5, at Day 17, 2nd line): 100%
% Survival (9L gliosarcoma; treated Day 5, at Day 18, 1st line): 100%
% Survival (9L gliosarcoma; treated Day 5, at Day 18, 2nd line): 100%
% Survival (9L gliosarcoma; treated Day 5, at Day 19, 1st line): 100%
% Survival (9L gliosarcoma; treated Day 5, at Day 19, 2nd line): 100%
% Survival (9L gliosarcoma; treated Day 5, at Day 20, 1st line): 100%
% Survival (9L gliosarcoma; treated Day 5, at Day 20, 2nd line): 100%
% Survival (9L gliosarcoma; treated Day 5, at Day 21, 1st line): 100%
% Survival (9L gliosarcoma; treated Day 5, at Day 21, 2nd line): 100%
% Survival (9L gliosarcoma; treated Day 5, at Day 22, 1st line): 100%
% Survival (9L gliosarcoma; treated Day 5, at Day 22, 2nd line): 100%
% Survival (9L gliosarcoma; treated Day 5, at Day 23, 1st line): 100%
% Survival (9L gliosarcoma; treated Day 5, at Day 23, 2nd line): 100%
% Survival (9L gliosarcoma; treated Day 5, at Day 24, 1st line): 100%
% Survival (9L gliosarcoma; treated Day 5, at Day 24, 2nd line): 100%
% Survival (9L gliosarcoma; treated Day 5, at Day 25, 1st line): 100%
% Survival (9L gliosarcoma; treated Day 5, at Day 26, 2nd line): 75%
% Survival (9L gliosarcoma; treated Day 5, at Day 27, 1st line): 75%
% Survival (9L gliosarcoma; treated Day 5, at Day 27, 2nd line): 62.5%
% Survival (9L gliosarcoma; treated Day 5, at Day 28, 1st line): 62.5%
% Survival (9L gliosarcoma; treated Day 5, at Day 28, 2nd line): 50%
% Survival (9L gliosarcoma; treated Day 5, at Day 29, 1st line): 50%
% Survival (9L gliosarcoma; treated Day 5, at Day 29, 2nd line): 50%
% Survival (9L gliosarcoma; treated Day 5, at Day 30, 1st line): 50%
% Survival (9L gliosarcoma; treated Day 5, at Day 30, 2nd line): 50%
% Survival (9L gliosarcoma; treated Day 5, at Day 31, 1st line): 50%
% Survival (9L gliosarcoma; treated Day 5, at Day 31, 2nd line): 50%
% Survival (9L gliosarcoma; treated Day 5, at Day 32, 1st line): 50%
% Survival (9L gliosarcoma; treated Day 5, at Day 32, 2nd line): 37.5%
% Survival (9L gliosarcoma; treated Day 5, at Day 33, 1st line): 37.5%
% Survival (9L gliosarcoma; treated Day 5, at Day 33, 2nd line): 37.5%
% Survival (9L gliosarcoma; treated Day 5, at Day 35, 1st line): 37.5%
% Survival (9L gliosarcoma; treated Day 5, at Day 35, 2nd line): 37.5%
% Survival (9L gliosarcoma; treated Day 5, at Day 40, 1st line): 37.5%
% Survival (9L gliosarcoma; treated Day 5, at Day 40, 2nd line): 37.5%
% Survival (9L gliosarcoma; treated Day 5, at Day 41, 1st line): 37.5%
% Survival (9L gliosarcoma; treated Day 5, at Day 41, 2nd line): 0%
Statistical Significance (survival) vs Day 0-0.2% (9L gliosarcoma; treatment Day 0): 0.4226
Statistical Significance (survival) vs Day 0-2.2% (9L gliosarcoma; treatment Day 0): 0.2237
Statistical Significance (survival) vs Day 0-28% (9L gliosarcoma; treatment Day 0): 0.7869
Statistical Significance (survival) vs Day 0-Placebo (9L gliosarcoma; treatment Day 0): 0.0001
Statistical Significance (survival) vs Day 5-0.2% (9L gliosarcoma; treatment Day 0): 0.0002
Statistical Significance (survival) vs Day 5-2.2% (9L gliosarcoma; treatment Day 0): 0.0008
Statistical Significance (survival) vs Day 5-Placebo (9L gliosarcoma; treatment Day 0): 0.0001
Statistical Significance (survival) vs Day 5-Systemic (9L gliosarcoma; treatment Day 0): 0.5157
Statistical Significance (survival) vs Day 0-0.2% (9L gliosarcoma; treatment Day 5): 0.2137
Statistical Significance (survival) vs Day 0-28% (9L gliosarcoma; treatment Day 5): 0.9992
Statistical Significance (survival) vs Day 0-Placebo (9L gliosarcoma; treatment Day 5): 0.0001
Statistical Significance (survival) vs Day 0-Systemic (9L gliosarcoma; treatment Day 5): 0.5157
Statistical Significance (survival) vs Day 5-0.2% (9L gliosarcoma; treatment Day 5): 0.0001
Statistical Significance (survival) vs Day 5-2.2% (9L gliosarcoma; treatment Day 5): 0.003
Statistical Significance (survival) vs Day 5-28% (9L gliosarcoma; treatment Day 5): 0.222
Statistical Significance (survival) vs Day 5-Placebo (9L gliosarcoma; treatment Day 5): 0.0001
Mean Survival (9L gliosarcoma; treatment initiated 5 days after tumor implantation): 29 days
Mean Survival (9L gliosarcoma; treatment initiated concurrently with tumor implantation (Day 0)): 28 days
